Patent US20150011508A1, “COMPOUNDS AND COMPOSITIONS AS C-KIT KINASE INHIBITORS” (priority 2011, published 2015)

Target: T1, c-kit (Homo sapiens, UniProt P10721)
T1 construct: human Mo7e cells which endogenously express c-kit; endogenous in cells; host or cells: human Mo7e cells (SCF-dependent promegakaryocytic leukemia line)
Test: Mo7e cell proliferation assay (SCF dependent proliferation)
Assay type: cell-based
Protocol: Compounds of Formula (I) and Formula (II) provided herein were assayed to measure their capacity to inhibit c-kit and PDGFR kinases using the appropriate assay described below: c-Kit inhibition was evaluated using the Mo7e cell proliferation assay, and PDGFR inhibition was evaluated using the Rat A10 cell proliferation assay and the Human TGHA-VSMC cell proliferation assay.
The compounds of Table 1 and Table 2 were tested for inhibition of SCF dependent proliferation using human Mo7e cells which endogenously express c-kit in a 384 well format. […] After 48 hours of incubation at 37° C., cell viability was measured by adding 25 uL of CellTiter Glo (Promega) to the cells and the luminescence was measured by a CLIPR CCD camera (Molecular Devices).
The IC50 value is given as that concentration of the test compound in question that provoke a response halfway between the baseline and maximum responses.

[1] = Table 1, human Mo7e cells stimulated with human recombinant SCF, 48 h, CellTiter Glo, 1% FBS (footnote)
[2] = Table 2, human Mo7e cells stimulated with human recombinant SCF, 48 h, CellTiter Glo, 1% FBS (footnote)

T1 sequence (P10721 26-976): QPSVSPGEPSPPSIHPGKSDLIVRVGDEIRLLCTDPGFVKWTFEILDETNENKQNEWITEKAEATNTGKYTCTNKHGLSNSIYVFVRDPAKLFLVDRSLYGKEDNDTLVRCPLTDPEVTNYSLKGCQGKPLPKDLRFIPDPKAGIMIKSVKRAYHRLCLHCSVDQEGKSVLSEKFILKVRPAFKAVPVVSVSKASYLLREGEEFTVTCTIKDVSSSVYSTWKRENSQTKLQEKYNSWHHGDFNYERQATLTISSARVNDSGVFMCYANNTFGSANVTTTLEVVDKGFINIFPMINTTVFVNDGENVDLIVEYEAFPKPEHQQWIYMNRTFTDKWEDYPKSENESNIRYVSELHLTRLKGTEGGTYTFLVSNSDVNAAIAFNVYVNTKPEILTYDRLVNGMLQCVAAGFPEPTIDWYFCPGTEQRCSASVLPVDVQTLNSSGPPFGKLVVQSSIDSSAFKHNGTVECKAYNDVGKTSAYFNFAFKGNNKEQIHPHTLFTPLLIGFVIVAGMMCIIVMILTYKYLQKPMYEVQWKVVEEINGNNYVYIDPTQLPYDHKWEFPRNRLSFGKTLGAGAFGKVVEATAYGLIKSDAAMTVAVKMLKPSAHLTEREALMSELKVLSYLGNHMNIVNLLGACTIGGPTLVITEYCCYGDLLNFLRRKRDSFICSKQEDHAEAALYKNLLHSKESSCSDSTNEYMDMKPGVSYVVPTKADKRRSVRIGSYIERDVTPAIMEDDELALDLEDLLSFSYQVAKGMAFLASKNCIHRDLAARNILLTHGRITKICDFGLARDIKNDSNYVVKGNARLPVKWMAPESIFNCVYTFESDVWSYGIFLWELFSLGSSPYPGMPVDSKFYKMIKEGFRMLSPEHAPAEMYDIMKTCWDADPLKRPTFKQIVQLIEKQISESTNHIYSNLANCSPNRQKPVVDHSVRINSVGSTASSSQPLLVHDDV

Compound | IC50 [1] [nM] | also measured
Cc1ccc(-c2noc(CCC(=O)OC(C)C)n2)cc1NC(=O)c1cnc2ccccn12 [F55a, isopropyl 3-(3-(3-(imidazo[1,2-a]pyridine-3-carboxamido)-4-methylphenyl)-1,2,4-oxadiazol-5-yl)propanoate] | 92 | 
COc1ccc2ncc(C(=O)Nc3cc(-c4noc(CCC(C)(C)O)n4)ccc3C)n2c1 [F56] | 70 | 
Cc1ccc2ncc(C(=O)Nc3cc(-c4noc(CCC(C)(C)O)n4)ccc3C)n2c1 [F57] | 98 | 
COCCOCc1nc(-c2ccc(C)c(NC(=O)c3cnc4ccc(C)cn34)c2)no1 [F58] | 90 | 
CCCC(C)c1nc(-c2ccc(C)c(NC(=O)c3cnc4ccc(C)cn34)c2)no1 (centres unmarked) [F59] | 22 | 
Cc1ccc(-c2noc(CCC(C)(C)O)n2)cc1NC(=O)c1cnc2cc(N3CCOCC3)ccn12 [F60] | 58 | 
Cc1ccc(-c2noc(CCC(C)(C)O)n2)cc1NC(=O)c1cnc2cc(N3CCOC3=O)ccn12 [F61] | 272 | 
Cc1ccc(-c2noc(CCC(C)(C)O)n2)cc1NC(=O)c1cnc2cc(N3CCCC3=O)ccn12 [F62] | 79 | 
Cc1ccc(-c2noc(CCC(C)(C)O)n2)cc1NC(=O)c1cnc2cc(-c3cnn(C)c3)ccn12 [F63] | 7 | 
Cc1ccc(-c2noc(CCC(C)(C)O)n2)cc1NC(=O)c1cnc2cc(C3CC3)ccn12 [F64] | 48 | 
Cc1ccc(-c2noc(N(C)CC(C)(C)O)n2)cc1NC(=O)c1cnc2cc(F)ccn12 [F65] | 100 | 
Cc1ccc(-c2noc(CCC(C)(O)C(F)(F)F)n2)cc1NC(=O)c1cnc2ccccn12 (centres unmarked) [F66, N-(2-methyl-5-(5-(4,4,4-trifluoro-3-hydroxy-3-methylbutyl)-1,2,4-oxadiazol-3-yl)phenyl)imidazo[1,2-a]pyridine-3-carboxamide] | 27 | 
Cc1ccn2c(C(=O)Nc3cc(-c4noc(CCC(C)(O)C(F)(F)F)n4)ccc3C)cnc2c1 (centres unmarked) [F67, 7-methyl-N-(2-methyl-5-(5-(4,4,4-trifluoro-3-hydroxy-3-methylbutyl)-1,2,4-oxadiazol-3-yl)phenyl)imidazo[1,2-a]pyridine-3-carboxamide] | 16 | 
Cc1ccn2c(C(=O)Nc3cc(-c4noc(NCCF)n4)ccc3C)cnc2c1 [F68] | 54 | 
Cc1ccn2c(C(=O)Nc3cc(-c4noc(NCC(C)C)n4)ccc3C)cnc2c1 [F69] | 16 | 
Cc1ccc(-c2noc(CCC(C)(O)C(F)(F)F)n2)cc1NC(=O)c1cnc2cc(F)ccn12 (centres unmarked) [F70] | 44 | 
Cc1ccc(-c2noc(CCC(C)(O)C(F)(F)F)n2)cc1NC(=O)c1cnc2ccc(F)cn12 (centres unmarked) [F71] | 54 | 
Cc1ccc2ncc(C(=O)Nc3cc(-c4noc(CCC(C)(O)C(F)(F)F)n4)ccc3C)n2c1 (centres unmarked) [F72] | 35 | 
[2H]c1c([2H])c([2H])n2c(C(=O)Nc3cc(-c4noc(CCC(C)(O)C(F)(F)F)n4)ccc3C)cnc2c1[2H] (centres unmarked) [F73] | 25 | 
Cc1ccc(-c2noc(CCC(F)(F)F)n2)cc1NC(=O)c1cnc2ccccn12 [F74] | 36 | 
Cc1ccn2c(C(=O)Nc3cc(-c4noc(COCC(F)(F)F)n4)ccc3C)cnc2c1 [F77] | 10 | 
[2H]C([2H])([2H])c1ccn2c(C(=O)Nc3cc(-c4noc(COCC(F)(F)F)n4)ccc3C)cnc2c1 [F78, 7-methyl-d3-N-(2-methyl-5-(5-((2,2,2-trifluoroethoxy)methyl)-1,2,4-oxadiazol-3-yl)phenyl)imidazo[1,2-a]pyridine-3-carboxamide] | 9 | 
Cc1ccc2ncc(C(=O)Nc3cc(-c4noc(COCC(F)(F)F)n4)ccc3C)n2c1 [F79] | 13 | 

Compound | IC50 [1] [nM] | also measured
Cc1ccc(-c2noc(CCCC(F)(F)F)n2)cc1NC(=O)c1cnc2ccccn12 [F80] | 5 | 
Cc1nc(-c2ccc(C)c(NC(=O)c3cnc4ccc(-c5ccccc5C)cn34)c2)no1 [F81, N-(2-methyl-5-(5-methyl-1,2,4-oxadiazol-3-yl)phenyl)-6-(o-tolyl)imidazo[1,2-a]pyridine-3-carboxamide] | 96 | 
Cc1nc(-c2ccc(C)c(NC(=O)c3cnc4ccc(-c5cccnc5C)cn34)c2)no1 [F82] | 53 | 
Cc1nc(-c2ccc(C)c(NC(=O)c3cnc4ccc(-c5ccncc5C)cn34)c2)no1 [F83] | 48 | 
Cc1ccc2ncc(C(=O)Nc3cc(-c4noc(CC[C@](C)(O)C(F)(F)F)n4)ccc3C)n2c1 [F84] | 30 | 
Cc1ccc(-c2noc(CC[C@](C)(O)C(F)(F)F)n2)cc1NC(=O)c1cnc2ccc(F)cn12 [F85] | 38 | 
Cc1ccc(-c2noc(CC[C@](C)(O)C(F)(F)F)n2)cc1NC(=O)c1cnc2cc(F)ccn12 [F86] | 43 | 
Cc1ccc2ncc(C(=O)Nc3cc(-c4noc(CC[C@@](C)(O)C(F)(F)F)n4)ccc3C)n2c1 [F87] | 29 | 
Cc1ccc(-c2noc(CC[C@@](C)(O)C(F)(F)F)n2)cc1NC(=O)c1cnc2ccc(F)cn12 [F88] | 42 | 
Cc1ccc(-c2noc(CC[C@@](C)(O)C(F)(F)F)n2)cc1NC(=O)c1cnc2cc(F)ccn12 [F89] | 41 | 
Cc1ccc(-c2nc(C(C)C)no2)cc1NC(=O)c1cnc2ccccn12 [F107] |  | IC50 [2]: 119 nM
COCc1noc(-c2ccc(C)c(NC(=O)c3cnc4ccccn34)c2)n1 [F108] |  | IC50 (Table 2, values marked *: 20% FBS instead of 1% FBS): 716 nM
Cc1ccc(-c2noc(C(C)(C)CO)n2)cc1NC(=O)c1cnc2ccccn12 [F109] |  | IC50 [2]: 682 nM
Cc1ccc(-c2noc(CCCS(N)(=O)=O)n2)cc1NC(=O)c1cnc2ccccn12 [F110] |  | IC50 [2]: 367 nM
Cc1ccc(-c2noc(CCCNC(=O)OC(C)(C)C)n2)cc1NC(=O)c1cnc2ccccn12 [F111] |  | IC50 [2]: 364 nM
Cc1ccc(-c2noc(CCCN)n2)cc1NC(=O)c1cnc2ccccn12 [F112] |  | IC50 [2]: 174 nM
CC(=O)NCCc1nc(-c2ccc(C)c(NC(=O)c3cnc4ccccn34)c2)no1 [F113] |  | IC50 [2]: 689 nM
Cc1ccc(-c2noc(CCNS(C)(=O)=O)n2)cc1NC(=O)c1cnc2ccccn12 [F114] |  | IC50 [2]: 409 nM
Cc1ccc(-c2noc(CCCNS(C)(=O)=O)n2)cc1NC(=O)c1cnc2ccccn12 [F115] |  | IC50 [2]: 772 nM
Cc1ccc(-c2noc(CCS(N)(=O)=O)n2)cc1NC(=O)c1cnc2ccccn12 [F116] |  | IC50 [2]: 735 nM
Cc1ccc(-c2noc(CCC(N)=O)n2)cc1NC(=O)c1cnc2ccccn12 [F117, N-(5-(5-(3-amino-3-oxopropyl)-1,2,4-oxadiazol-3-yl)-2-methylphenyl)imidazo[1,2-a]pyridine-3-carboxamide] |  | IC50 [2]: 803 nM
CCNC(=O)CCc1nc(-c2ccc(C)c(NC(=O)c3cnc4ccccn34)c2)no1 [F118] |  | IC50 [2]: 527 nM

The next lines start with results.

IC50 [1] [nM] | Compound | also measured
48 | COC(C)(CCc1nc(-c2ccc(C)c(NC(=O)c3cnc4cc(C)ccn34)c2)no1)C(F)(F)F (centres unmarked) [F90] | 
6 | Cc1nc(C)c(-c2ccc3ncc(C(=O)Nc4cc(-c5noc(COCC(F)(F)F)n5)ccc4C)n3c2)s1 [F91, 6-(2,4-dimethylthiazol-5-yl)-N-(2-methyl-5-(5-((2,2,2-trifluoroethoxy)methyl)-1,2,4-oxadiazol-3-yl)phenyl)imidazo[1,2-a]pyridine-3-carboxamide] | 
16 | Cc1nc(-c2ccc(C)c(NC(=O)c3cnc4ccc(-c5cccnc5F)cn34)c2)no1 [F92] | 
68 | CNC(=O)c1ccc(-c2ccc3ncc(C(=O)Nc4cc(-c5noc(C)n5)ccc4C)n3c2)cn1 [F93] | 
39 | Cc1ccc(-c2noc(COCC(F)F)n2)cc1NC(=O)c1cnc2ccccn12 [F94, N-(5-(5-((2,2-difluoroethoxy)methyl)-1,2,4-oxadiazol-3-yl)-2-methylphenyl)imidazo[1,2-a]pyridine-3-carboxamide] | 
28 | Cc1ccc(-c2noc(COC(CF)CF)n2)cc1NC(=O)c1cnc2ccccn12 [F95] | 
11 | Cc1ccc(-c2noc(COC(C)C(F)(F)F)n2)cc1NC(=O)c1cnc2ccccn12 (centres unmarked) [F96] | 
38 | Cc1nc(-c2ccc(C)c(NC(=O)c3cnc4ccc(-c5scnc5C)cn34)c2)no1 [F97] | 
18 | Cc1ccn2c(C(=O)Nc3cc(-c4noc(CCC(O)C(F)(F)F)n4)ccc3C)cnc2c1 (centres unmarked) [F98] | 
45 | Cc1ccn2c(C(=O)Nc3cc(-c4noc(C[C@@H](O)C(F)(F)F)n4)ccc3C)cnc2c1 [F99] | 
19 | Cc1nc(-c2ccc(C)c(NC(=O)c3cnc4ccc(-c5c(C)nn(C)c5C)cn34)c2)no1 [F100] | 
80 | Cc1nc(-c2ccc(C)c(NC(=O)c3cnc4ccc(-c5cccn5C)cn34)c2)no1 [F101] | 
87 | COc1ccncc1-c1ccc2ncc(C(=O)Nc3cc(-c4noc(C)n4)ccc3C)n2c1 [F102] | 
61 | Cc1nc(-c2ccc(C)c(NC(=O)c3cnc4ccc(-c5ccnc(N)c5)cn34)c2)no1 [F103] | 
9 | Cc1nc(-c2ccc(C)c(NC(=O)c3cnc4ccc(-c5c(C)n[nH]c5C)cn34)c2)no1 [F104, 6-(3,5-dimethyl-1H-pyrazol-4-yl)-N-(2-methyl-5-(5-methyl-1,2,4-oxadiazol-3-yl)phenyl)imidazo[1,2-a]pyridine-3-carboxamide] | 
38 | Cc1nc(-c2ccc(C)c(NC(=O)c3cnc4ccc(-c5c(C)nn(S(C)(=O)=O)c5C)cn34)c2)no1 [F105, 6-(3,5-dimethyl-1-(methylsulfonyl)-1H-pyrazol-4-yl)-N-(2-methyl-5-(5-methyl-1,2,4-oxadiazol-3-yl)phenyl)imidazo[1,2-a]pyridine-3-carboxamide] | 
24 | Cc1nc(-c2ccc(C)c(NC(=O)c3cnc4ccc(-c5c(C)nn(CCN6CCOCC6)c5C)cn34)c2)no1 [F106, 6-(3,5-dimethyl-1-(2-morpholinoethyl)-1H-pyrazol-4-yl)-N-(2-methyl-5-(5-methyl-1,2,4-oxadiazol-3-yl)phenyl)imidazo[1,2-a]pyridine-3-carboxamide] | 
